Tests used:
HL-60 = assay: Cytotoxicity against human HL60 cells assessed as reduction in cell viability after 48 hrs by WST-8 assay; type: functional, cell-based; conditions: HL-60, 48 h
HeLa = assay: Cytotoxicity against human HeLa cells assessed as reduction in cell viability after 48 hrs by WST-8 assay; type: functional, cell-based

SMILES | EC50 (HL-60) | EC50 (HeLa)
COc1ccc(C[C@H]2COC(=O)[C@@H]2Cc2ccc(Cl)c(Cl)c2)cc1OC | 24 µM | 
COc1cc(C[C@H]2COC(=O)[C@@H]2Cc2ccc(O)c(OC)c2)ccc1O [MATAIRESINOL] | 74 µM | > 100 µM
O=C1OC[C@H](Cc2ccccc2)[C@H]1Cc1ccccc1C(F)(F)F | 37 µM | 
O=C1OC[C@H](Cc2ccccc2)[C@H]1Cc1ccccc1O | 83 µM | 
Cc1ccc(C[C@H]2COC(=O)[C@@H]2Cc2ccc(Cl)c(Cl)c2)cc1 | 19 µM | 
Clc1ccc(C[C@H]2COC[C@@H]2Cc2ccc3c(c2)OCCO3)cc1Cl | 38 µM | 
O=C1OC[C@H](Cc2ccccc2)[C@H]1Cc1ccc(Cl)cc1 | 36 µM | 
COc1cc(C[C@H]2C(=O)OC[C@@H]2Cc2ccc(OC)c(OC)c2)ccc1O [ARCTIGENIN] | 12 µM | > 100 µM
O=C1OC[C@H](Cc2ccccc2)[C@H]1Cc1ccccc1 | 77 µM | 
CCCCc1ccc(C[C@H]2COC[C@@H]2Cc2ccc(Cl)c(Cl)c2)cc1 | 23 µM | 
O=C1OC[C@H](Cc2ccc(F)cc2)[C@H]1Cc1ccc(Cl)c(Cl)c1 | 14 µM | 19 µM
Fc1ccc(C[C@H]2COC[C@@H]2Cc2ccc(Cl)c(Cl)c2)cc1 | 43 µM | 
COc1ccccc1C[C@H]1COC[C@@H]1Cc1ccc(Cl)c(Cl)c1 | 55 µM | 
O=C1OC[C@H](Cc2ccccc2)[C@H]1Cc1ccc(OC(F)(F)F)cc1 | 27 µM | 
O=C1OC[C@H](Cc2ccccc2)[C@H]1Cc1cc(Cl)cc(Cl)c1 | 23 µM | 17 µM
Cc1ccc(C[C@H]2C(=O)OC[C@@H]2Cc2ccccc2)cc1 | 44 µM | 
COc1ccccc1C[C@H]1C(=O)OC[C@@H]1Cc1ccccc1 | 79 µM | 
O=C1OC[C@H](Cc2ccccc2)[C@H]1Cc1ccc(F)cc1 | 57 µM | 
COc1ccc(C[C@H]2COC[C@@H]2Cc2ccc(Cl)c(Cl)c2)cc1OC | 16 µM | 
CCCCOc1ccc(C[C@H]2COC[C@@H]2Cc2ccccc2)cc1 | 11 µM | 
CCCCOc1ccccc1C[C@H]1COC(=O)[C@@H]1Cc1ccc(Cl)c(Cl)c1 | 10 µM | > 100 µM
COc1cccc(C[C@H]2COC(=O)[C@@H]2Cc2ccc(Cl)c(Cl)c2)c1 | 34 µM | 
Oc1ccccc1C[C@H]1COC[C@@H]1Cc1ccc(Cl)c(Cl)c1 | 34 µM | 

SMILES | EC50 (HL-60) | EC50 (HeLa)
O=C1OC[C@H](Cc2ccccc2)[C@H]1Cc1cccc(OC(F)(F)F)c1 | 34 µM | 
COCOc1cccc(C[C@H]2C(=O)OC[C@@H]2Cc2ccccc2)c1 | 80 µM | 
Clc1ccc(C[C@H]2COC[C@@H]2Cc2ccc(Cl)c(Cl)c2)cc1Cl | 16 µM | 
O=C1OC[C@H](Cc2ccccc2)[C@H]1Cc1ccc2c(c1)OCO2 | 57 µM | 
Cc1cccc(C[C@H]2COC(=O)[C@@H]2Cc2ccc(Cl)c(Cl)c2)c1 | 22 µM | 
COc1cccc(C[C@H]2C(=O)OC[C@@H]2Cc2ccccc2)c1 | 66 µM | 
Cc1ccc(C[C@H]2COC[C@@H]2Cc2ccc(Cl)c(Cl)c2)cc1C | 36 µM | 
COc1ccc(C[C@H]2COC(=O)[C@@H]2Cc2ccc(Cl)c(Cl)c2)cc1 | 37 µM | 
CCCCOc1ccc(/C=C2\C(=O)OC[C@@H]2Cc2ccccc2)cc1 | 58 µM | 
C[C@H](Cc1ccccc1)[C@H](C)Cc1ccc(Cl)c(Cl)c1 | 19 µM | 
O=C1OC[C@H](Cc2ccc3c(c2)OCCO3)[C@H]1Cc1ccc(Cl)c(Cl)c1 | 28 µM | 
CCCCCCCOc1cccc(C[C@H]2C(=O)OC[C@@H]2Cc2ccccc2)c1 | 81 µM | 
CCCCOc1ccc(C[C@H]2C(=O)OC[C@@H]2Cc2ccccc2)cc1 | 23 µM | 27 µM
Cc1ccc(C[C@H]2C(=O)OC[C@@H]2Cc2ccccc2)cc1C | 35 µM | 
O=C1OC[C@H](Cc2ccccc2F)[C@H]1Cc1ccc(Cl)c(Cl)c1 | 28 µM | 
O=C1OC[C@H](Cc2ccc(O)cc2)[C@H]1Cc1ccc(Cl)c(Cl)c1 | 37 µM | 
Oc1ccc(C[C@H]2COC[C@@H]2Cc2ccc(Cl)c(Cl)c2)cc1 | 31 µM | 
Cc1ccc(C[C@H]2COC[C@@H]2Cc2ccc(Cl)c(Cl)c2)cc1 | 21 µM | 
O=C1OC[C@H](Cc2ccc(F)c(F)c2)[C@H]1Cc1ccc(Cl)c(Cl)c1 | 25 µM | 
CCc1ccc(C[C@H]2COC[C@@H]2Cc2ccc(Cl)c(Cl)c2)cc1 | 26 µM | 
COCOc1ccc(C[C@H]2C(=O)OC[C@@H]2Cc2ccccc2)cc1 | 71 µM | 
O=C1OC[C@H](Cc2ccc(Cl)c(Cl)c2)[C@H]1Cc1ccc(Cl)c(Cl)c1 | 20 µM | 
O=C1OC[C@H](Cc2ccccc2)[C@H]1Cc1cccc(C(F)(F)F)c1 | 34 µM | 

SMILES | EC50 (HL-60) | EC50 (HeLa)
CCCCCCCOc1ccccc1C[C@H]1C(=O)OC[C@@H]1Cc1ccccc1 | 75 µM | 
CCOc1ccccc1C[C@H]1COC(=O)[C@@H]1Cc1ccc(Cl)c(Cl)c1 | 15 µM | 31 µM
O=C1OC[C@H](Cc2cccc(F)c2)[C@H]1Cc1ccc(Cl)c(Cl)c1 | 14 µM | 20 µM
CCCCc1ccc(C[C@H]2COC(=O)[C@@H]2Cc2ccc(Cl)c(Cl)c2)cc1 | 9.4 µM | 27 µM
CCCCOc1ccccc1C[C@H]1COC[C@@H]1Cc1ccc(Cl)c(Cl)c1 | 20 µM | 
O=C1OC[C@H](Cc2cccc(O)c2)[C@H]1Cc1ccc(Cl)c(Cl)c1 | 48 µM | 
Cc1ccccc1C[C@H]1COC[C@@H]1Cc1ccc(Cl)c(Cl)c1 | 21 µM | 
CCOc1ccccc1C[C@H]1COC[C@@H]1Cc1ccc(Cl)c(Cl)c1 | 29 µM | 
COc1cc(C[C@H]2COC[C@@H]2Cc2ccc(Cl)c(Cl)c2)ccc1O | 21 µM | 
CCc1ccc(C[C@H]2COC(=O)[C@@H]2Cc2ccc(Cl)c(Cl)c2)cc1 | 16 µM | 
Clc1ccc(C[C@H]2COC[C@@H]2Cc2ccc3c(c2)OCO3)cc1Cl | 22 µM | 
O=C1OC[C@H](Cc2ccccc2)[C@H]1Cc1ccc(C(F)(F)F)cc1 | 22 µM | 29 µM
Cc1cccc(C[C@H]2C(=O)OC[C@@H]2Cc2ccccc2)c1 | 53 µM | 
Cc1ccccc1C[C@H]1COC(=O)[C@@H]1Cc1ccc(Cl)c(Cl)c1 | 22 µM | 
Clc1ccc(C[C@H]2COC[C@@H]2Cc2ccccc2)cc1Cl | 19 µM | 
O=C1OC[C@H](Cc2ccccc2)[C@H]1Cc1ccc(Cl)c(Cl)c1 | 19 µM | 26 µM
COc1cc(C[C@H]2COC(=O)[C@@H]2Cc2ccc(Cl)c(Cl)c2)ccc1O | 36 µM | 
COc1ccc(C[C@H]2COC(=O)[C@@H]2Cc2ccc(Cl)c(Cl)c2)cc1O | 32 µM | 
Fc1ccccc1C[C@H]1COC[C@@H]1Cc1ccc(Cl)c(Cl)c1 | 51 µM | 
O=C1OC[C@H](Cc2ccc3c(c2)OCO3)[C@H]1Cc1ccc(Cl)c(Cl)c1 | 51 µM | 
O=C1OC[C@H](Cc2ccccc2)[C@H]1Cc1ccccc1Cl | 37 µM | 
O=C1OC[C@H](Cc2ccccc2)[C@H]1Cc1ccc(O)cc1 | 88 µM | 
Oc1cccc(C[C@H]2COC[C@@H]2Cc2ccc(Cl)c(Cl)c2)c1 | 31 µM | 

SMILES | EC50 (HL-60) | EC50 (HeLa)
COCOc1ccccc1C[C@H]1C(=O)OC[C@@H]1Cc1ccccc1 | 76 µM | 
Fc1cccc(C[C@H]2COC[C@@H]2Cc2ccc(Cl)c(Cl)c2)c1 | 20 µM | 
O=C1OC[C@H](Cc2ccccc2)[C@H]1Cc1cccc(F)c1 | 75 µM | 
COc1ccc(C[C@H]2COC[C@@H]2Cc2ccc(Cl)c(Cl)c2)cc1O | 33 µM | 
O=C1OC[C@H](Cc2ccccc2)[C@H]1Cc1ccccc1F | 72 µM | 
Cc1ccc(C[C@H]2COC(=O)[C@@H]2Cc2ccc(Cl)c(Cl)c2)cc1C | 16 µM | 
COc1cc(C[C@@H](C)[C@H](C)Cc2ccc(O)c(OC)c2)ccc1O [(-)-DIHYDROGUAIARETICACID] | 26 µM | 22 µM
O=C1OC[C@H](Cc2ccccc2)[C@H]1Cc1ccccc1OC(F)(F)F | 39 µM | 
CCCCOc1cccc(C[C@H]2C(=O)OC[C@@H]2Cc2ccccc2)c1 | 26 µM | 
Cc1cccc(C[C@H]2COC[C@@H]2Cc2ccc(Cl)c(Cl)c2)c1 | 28 µM | 
O=C1OC[C@H](Cc2ccccc2O)[C@H]1Cc1ccc(Cl)c(Cl)c1 | 33 µM | 
O=C1OC[C@H](Cc2ccccc2)[C@H]1Cc1ccc(F)c(F)c1 | 50 µM | 
COc1ccc(C[C@H]2COC[C@@H]2Cc2ccc(Cl)c(Cl)c2)cc1 | 39 µM | 
COc1cc(C[C@H]2C(=O)OC[C@@H]2Cc2ccccc2)ccc1O | 93 µM | 
CCCCOc1ccccc1C[C@H]1C(=O)OC[C@@H]1Cc1ccccc1 | 20 µM | 
Cc1ccccc1C[C@H]1C(=O)OC[C@@H]1Cc1ccccc1 | 57 µM | 
COc1cccc(C[C@H]2COC[C@@H]2Cc2ccc(Cl)c(Cl)c2)c1 | 73 µM | 
Fc1ccc(C[C@H]2COC[C@@H]2Cc2ccc(Cl)c(Cl)c2)cc1F | 18 µM | 
O=C1OC[C@H](Cc2ccccc2)[C@H]1Cc1cccc(Cl)c1 | 36 µM | 
COc1ccc(C[C@H]2C(=O)OC[C@@H]2Cc2ccccc2)cc1 | 67 µM | 
CCCCOc1cc(C[C@H]2C(=O)OC[C@@H]2Cc2ccccc2)ccc1O | 35 µM | 

From ChEMBL document CHEMBL4052800, “Syntheses of cytotoxic novel arctigenin derivatives bearing halogen and alkyl groups on aromatic rings” (Bioorg Med Chem Lett, 2017)
